Active and inactive are the calls of the source. No cut-off for these calls is given here.
What was measured:
[1] = target: Bromodomain adjacent to zinc finger domain protein 2B (Homo sapiens) (UniProt Q9UIF8); conditions: dose 200.0 µM, time 30.0 min
[2] = target: Chromatin remodeling regulator CECR2 (Homo sapiens) (UniProt Q9BXF3); conditions: dose 200.0 µM, time 30.0 min
[3] = tested on: CWR22R; assay: Inhibition of colony formation in human 22Rv1 cells at 1 to 4 uM incubated for 14 days by crystal violet staining based assay; type: functional, cell-based; conditions: dose 1-4 µM, time 14.0 day
[4] = tested on: CWR22R; assay: Suppression of Androgen receptor variants gene expression in human 22Rv1 cells incubated for 48 hrs by SYBR green dye-based qRT-PCR analysis; type: functional, cell-based; conditions: dose 0-20 µM, DDE = dose-dependent effect
[5] = tested on: CWR22R; assay: Antitumor activity against human 22Rv1 cells xenografted in NOD SCID mouse assessed as tumor growth inhibition at 40 mg/kg, po administered 5 times per week via oral gavage for 14 days and measured every other day relative to control; type: functional; conditions: 22Rv1, 336 h, time 14 day, read-out: TGI
[6] = Intrinsic clearance in human liver microsomes at 1 uM incubated for 45 mins in presence of NADPH by LC-MS/MS analysis; type: ADME, Microsome; conditions: read-out: CLH
[7] = Toxicity in NOD SCID mouse xenografted with human 22Rv1 cells assessed as body weight loss at 40 mg/kg, ip administered once daily for 21 days and measured every other day; type: organism-based, CWR22R; conditions: in vivo, 504 h, time 21 day
[8] = target: SWI/SNF-related matrix-associated actin-dependent regulator of chromatin subfamily A member 2 (Homo sapiens) (UniProt P51531); conditions: dose 200.0 µM, time 30.0 min
[9] = AUC (0 to infinity) in Sprague-Dawley rat at 25 mg/kg, po measured up to 24 hrs; type: ADME, organism-based; design: time < 24 hrs, dose 25 mg/kg, route po; conditions: in vivo
[10] = target: CREB-binding protein (Homo sapiens, UniProt Q92793); assay: Binding affinity to His6-tagged human CBP bromodomain (1081 to 1197 residues) expressed in Escherichia coli BL21 (DE3) assessed as dissociation constant by ITC analysis
[11] = target: T1, Bromodomain-containing protein 9 (Homo sapiens) (UniProt Q9H8M2); conditions: dose 200.0 µM, time 30.0 min
T1 sequence (whole entry): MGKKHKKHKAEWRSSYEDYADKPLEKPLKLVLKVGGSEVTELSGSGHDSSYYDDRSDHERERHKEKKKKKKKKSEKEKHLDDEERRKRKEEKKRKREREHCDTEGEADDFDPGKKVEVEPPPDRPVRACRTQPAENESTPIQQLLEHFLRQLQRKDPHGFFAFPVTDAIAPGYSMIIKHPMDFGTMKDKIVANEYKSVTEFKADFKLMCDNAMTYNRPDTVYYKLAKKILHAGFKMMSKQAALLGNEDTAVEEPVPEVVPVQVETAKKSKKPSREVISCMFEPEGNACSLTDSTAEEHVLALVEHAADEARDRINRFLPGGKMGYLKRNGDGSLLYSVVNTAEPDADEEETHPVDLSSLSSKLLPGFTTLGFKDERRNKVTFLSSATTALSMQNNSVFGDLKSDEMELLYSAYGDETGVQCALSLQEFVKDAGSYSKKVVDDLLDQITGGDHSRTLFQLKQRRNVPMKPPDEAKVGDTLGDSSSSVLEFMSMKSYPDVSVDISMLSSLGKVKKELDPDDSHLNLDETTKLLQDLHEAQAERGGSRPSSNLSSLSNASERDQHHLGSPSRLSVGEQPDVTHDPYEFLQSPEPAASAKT

[12] = target: T2, Bromodomain-containing protein 2 (Homo sapiens, UniProt P25440); conditions: dose 200.0 µM, time 30.0 min
[13] = tested on: CWR22R; assay: Antitumor activity against human 22Rv1 cells xenografted in NOD SCID mouse assessed as tumor growth inhibition at 40 mg/kg, ip administered once daily for 21 days and measured every other day relative to control; type: functional; conditions: 22Rv1, 504 h, time 21 day, read-out: TGI
[14] = tested on: LNCaP C4-2B; assay: Suppression of PSA gene expression in human LNCaP C4-2B cells transfected with renilla luciferase incubated for 24 hrs by dual luciferase reporter assay; type: functional, cell-based; conditions: dose 0.4-10 µM, DDE = dose-dependent effect
[15] = tested on: LNCaP C4-2B; assay: Suppression of c-Myc protein expression in human LNCaP C4-2B cells at 5 uM incubated for 48 hrs by Western blot analysis; type: functional, cell-based
[16] = Toxicity in NOD SCID mouse xenografted with human 22Rv1 cells assessed as mortality at 40 mg/kg, ip administered once daily for 21 days; type: organism-based, CWR22R; conditions: in vivo, 504 h, time 21 day
[17] = AUC (0 to infinity) in Sprague-Dawley rat at 5 mg/kg, iv administered as single dose measured up to 24 hrs; type: ADME, organism-based; design: time < 24 hrs, dose 5 mg/kg, route iv; conditions: in vivo, 24 h
[18] = target: Bromodomain-containing protein 4 (Homo sapiens, UniProt O60885); conditions: dose 200.0 µM, time 30.0 min
[19] = target: Histone acetyltransferase p300 (Homo sapiens) (UniProt Q09472); conditions: dose 200.0 µM, time 30.0 min
[20] = target: T2, Bromodomain-containing protein 2; conditions: dose 200.0 µM, time 30.0 min; remark: listed apart in the source
[21] = Metabolic stability in rat liver microsomes assessed as parent compound remaining at 1 uM incubated for 45 mins in presence of NADPH by LC-MS/MS analysis; type: ADME, Microsome; conditions: read-out: Stability
[22] = tested on: LNCaP C4-2B; assay: Inhibition of colony formation in human LNCaP C4-2B cells at 1 to 4 uM incubated for 14 days by crystal violet staining based assay; type: functional, cell-based; conditions: dose 1-4 µM, time 14.0 day
[23] = target: Bromodomain-containing protein 3 (Homo sapiens, UniProt Q15059); conditions: dose 200.0 µM, time 30.0 min
[24] = Apparent permeability across basolateral to apical side in human Caco-2 cells at 10 uM measured after 2 hrs by LC-MS/MS analysis; type: ADME, cell-based
[25] = Half life in rat liver microsomes at 1 uM incubated for 45 mins in presence of NADPH by LC-MS/MS analysis; type: ADME, Microsome
[26] = tested on: LNCaP C4-2B; assay: Antiproliferative activity against human LNCaP C4-2B cells assessed as inhibition of cell growth by Celltiter-Glo assay; type: functional, cell-based
[27] = tested on: LNCaP; assay: Suppression of Androgen receptor target-gene expression in human LNCaP cells at 5 uM incubated for 48 hrs by SYBR green dye-based qRT-PCR analysis; type: functional, cell-based
[28] = Cmax in Sprague-Dawley rat at 5 mg/kg, iv administered as single dose measured up to 24 hrs; type: ADME, organism-based; design: time < 24 hrs, dose 5 mg/kg, route iv; conditions: in vivo
[29] = tested on: CWR22R; assay: Suppression of PSA gene expression in human 22Rv1 cells incubated for 48 hrs by dual luciferase reporter assay; type: functional, cell-based; conditions: dose 0-20 µM, DDE = dose-dependent effect
[30] = tested on: LNCaP; assay: Suppression of c-Myc protein expression in human LNCaP cells at 5 uM incubated for 48 hrs by Western blot analysis; type: functional, cell-based
[31] = tested on: LNCaP C4-2B; assay: Suppression of Androgen receptor target-gene expression in human LNCaP C4-2B cells at 5 uM incubated for 48 hrs by SYBR green dye-based qRT-PCR analysis; type: functional, cell-based
[32] = Efflux ratio of apparent permeability across basolateral to apical side over apical to basolateral side in human Caco-2 cells at 10 uM measured after 2 hrs by LC-MS/MS analysis; type: ADME, cell-based

T2 sequence (P25440 whole entry, looked up): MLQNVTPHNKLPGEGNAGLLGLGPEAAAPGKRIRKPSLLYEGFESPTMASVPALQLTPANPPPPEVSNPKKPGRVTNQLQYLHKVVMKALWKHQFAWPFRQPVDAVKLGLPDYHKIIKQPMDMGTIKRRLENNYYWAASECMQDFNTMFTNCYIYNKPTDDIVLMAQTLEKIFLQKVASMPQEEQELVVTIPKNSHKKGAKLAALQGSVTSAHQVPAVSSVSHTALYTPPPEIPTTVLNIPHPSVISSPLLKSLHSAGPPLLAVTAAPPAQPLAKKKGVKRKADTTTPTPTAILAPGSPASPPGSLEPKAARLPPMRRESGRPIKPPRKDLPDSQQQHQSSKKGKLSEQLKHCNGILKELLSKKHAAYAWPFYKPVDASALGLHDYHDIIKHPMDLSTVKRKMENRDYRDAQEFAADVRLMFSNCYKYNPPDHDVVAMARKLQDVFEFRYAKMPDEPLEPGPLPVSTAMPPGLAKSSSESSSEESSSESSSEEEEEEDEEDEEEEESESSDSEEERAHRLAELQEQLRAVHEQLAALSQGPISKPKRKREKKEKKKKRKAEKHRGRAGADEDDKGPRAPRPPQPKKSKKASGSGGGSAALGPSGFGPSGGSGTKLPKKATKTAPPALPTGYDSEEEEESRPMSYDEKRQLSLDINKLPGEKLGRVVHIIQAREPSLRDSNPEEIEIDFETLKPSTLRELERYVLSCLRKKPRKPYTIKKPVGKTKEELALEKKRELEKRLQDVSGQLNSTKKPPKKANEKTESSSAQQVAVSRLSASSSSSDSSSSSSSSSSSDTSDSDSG
Chain of Bromodomain adjacent to zinc finger domain protein 2B (Homo sapiens) (Q9UIF8 whole entry, the tested form may be a part): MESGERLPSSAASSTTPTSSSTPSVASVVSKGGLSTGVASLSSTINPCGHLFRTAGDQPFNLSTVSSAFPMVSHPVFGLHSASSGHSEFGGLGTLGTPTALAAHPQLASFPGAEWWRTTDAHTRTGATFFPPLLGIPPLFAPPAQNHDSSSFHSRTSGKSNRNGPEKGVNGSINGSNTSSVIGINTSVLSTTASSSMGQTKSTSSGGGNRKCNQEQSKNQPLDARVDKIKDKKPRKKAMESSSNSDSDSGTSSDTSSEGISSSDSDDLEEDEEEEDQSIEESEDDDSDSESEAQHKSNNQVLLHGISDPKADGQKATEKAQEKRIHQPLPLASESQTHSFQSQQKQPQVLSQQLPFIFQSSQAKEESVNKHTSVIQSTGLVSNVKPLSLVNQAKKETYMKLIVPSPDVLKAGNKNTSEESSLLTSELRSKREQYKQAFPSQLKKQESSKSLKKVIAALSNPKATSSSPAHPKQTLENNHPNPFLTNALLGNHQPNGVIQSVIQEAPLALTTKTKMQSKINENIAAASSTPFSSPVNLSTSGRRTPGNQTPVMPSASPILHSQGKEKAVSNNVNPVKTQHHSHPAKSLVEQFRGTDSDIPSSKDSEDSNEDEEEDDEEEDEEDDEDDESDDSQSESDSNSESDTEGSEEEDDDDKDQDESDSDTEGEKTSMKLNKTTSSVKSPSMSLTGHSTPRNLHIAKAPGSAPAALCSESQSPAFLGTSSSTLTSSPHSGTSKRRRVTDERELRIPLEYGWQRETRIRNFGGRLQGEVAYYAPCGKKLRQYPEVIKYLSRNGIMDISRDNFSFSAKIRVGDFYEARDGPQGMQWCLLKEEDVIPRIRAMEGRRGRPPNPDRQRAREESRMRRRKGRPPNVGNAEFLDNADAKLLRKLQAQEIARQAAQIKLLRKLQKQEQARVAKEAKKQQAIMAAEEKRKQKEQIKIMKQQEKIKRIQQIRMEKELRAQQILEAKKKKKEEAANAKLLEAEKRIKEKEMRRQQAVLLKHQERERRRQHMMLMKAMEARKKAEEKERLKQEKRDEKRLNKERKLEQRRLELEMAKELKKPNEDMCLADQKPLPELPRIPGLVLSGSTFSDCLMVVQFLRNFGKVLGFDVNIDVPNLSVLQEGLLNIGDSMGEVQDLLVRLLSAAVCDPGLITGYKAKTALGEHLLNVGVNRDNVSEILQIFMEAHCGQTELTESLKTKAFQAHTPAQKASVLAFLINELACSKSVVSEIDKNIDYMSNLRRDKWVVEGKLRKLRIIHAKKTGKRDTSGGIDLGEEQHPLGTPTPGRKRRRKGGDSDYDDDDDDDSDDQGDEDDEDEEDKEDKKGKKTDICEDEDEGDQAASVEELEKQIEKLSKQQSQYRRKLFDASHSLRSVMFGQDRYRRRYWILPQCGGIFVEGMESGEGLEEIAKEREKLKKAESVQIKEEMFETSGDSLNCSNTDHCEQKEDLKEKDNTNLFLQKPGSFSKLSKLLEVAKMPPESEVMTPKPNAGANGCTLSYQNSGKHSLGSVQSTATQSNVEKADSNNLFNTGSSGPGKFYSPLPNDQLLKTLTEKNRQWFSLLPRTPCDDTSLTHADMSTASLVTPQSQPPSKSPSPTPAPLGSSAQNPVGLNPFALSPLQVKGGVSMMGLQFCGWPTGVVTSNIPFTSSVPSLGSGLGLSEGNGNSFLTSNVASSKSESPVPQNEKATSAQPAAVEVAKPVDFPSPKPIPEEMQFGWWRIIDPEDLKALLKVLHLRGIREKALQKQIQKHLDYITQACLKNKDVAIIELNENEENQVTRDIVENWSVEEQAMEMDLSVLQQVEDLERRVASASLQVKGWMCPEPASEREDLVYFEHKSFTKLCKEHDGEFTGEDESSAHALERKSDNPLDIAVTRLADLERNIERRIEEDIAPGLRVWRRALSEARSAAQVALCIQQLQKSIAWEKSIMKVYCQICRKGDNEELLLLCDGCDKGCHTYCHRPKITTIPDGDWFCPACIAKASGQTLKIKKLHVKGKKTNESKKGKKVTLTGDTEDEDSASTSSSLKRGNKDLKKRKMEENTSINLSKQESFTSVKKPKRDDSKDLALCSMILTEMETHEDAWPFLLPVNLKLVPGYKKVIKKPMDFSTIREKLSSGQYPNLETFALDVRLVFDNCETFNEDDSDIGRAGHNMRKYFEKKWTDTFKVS
Chain of SWI/SNF-related matrix-associated actin-dependent regulator of chromatin subfamily A member 2 (Homo sapiens) (P51531 whole entry): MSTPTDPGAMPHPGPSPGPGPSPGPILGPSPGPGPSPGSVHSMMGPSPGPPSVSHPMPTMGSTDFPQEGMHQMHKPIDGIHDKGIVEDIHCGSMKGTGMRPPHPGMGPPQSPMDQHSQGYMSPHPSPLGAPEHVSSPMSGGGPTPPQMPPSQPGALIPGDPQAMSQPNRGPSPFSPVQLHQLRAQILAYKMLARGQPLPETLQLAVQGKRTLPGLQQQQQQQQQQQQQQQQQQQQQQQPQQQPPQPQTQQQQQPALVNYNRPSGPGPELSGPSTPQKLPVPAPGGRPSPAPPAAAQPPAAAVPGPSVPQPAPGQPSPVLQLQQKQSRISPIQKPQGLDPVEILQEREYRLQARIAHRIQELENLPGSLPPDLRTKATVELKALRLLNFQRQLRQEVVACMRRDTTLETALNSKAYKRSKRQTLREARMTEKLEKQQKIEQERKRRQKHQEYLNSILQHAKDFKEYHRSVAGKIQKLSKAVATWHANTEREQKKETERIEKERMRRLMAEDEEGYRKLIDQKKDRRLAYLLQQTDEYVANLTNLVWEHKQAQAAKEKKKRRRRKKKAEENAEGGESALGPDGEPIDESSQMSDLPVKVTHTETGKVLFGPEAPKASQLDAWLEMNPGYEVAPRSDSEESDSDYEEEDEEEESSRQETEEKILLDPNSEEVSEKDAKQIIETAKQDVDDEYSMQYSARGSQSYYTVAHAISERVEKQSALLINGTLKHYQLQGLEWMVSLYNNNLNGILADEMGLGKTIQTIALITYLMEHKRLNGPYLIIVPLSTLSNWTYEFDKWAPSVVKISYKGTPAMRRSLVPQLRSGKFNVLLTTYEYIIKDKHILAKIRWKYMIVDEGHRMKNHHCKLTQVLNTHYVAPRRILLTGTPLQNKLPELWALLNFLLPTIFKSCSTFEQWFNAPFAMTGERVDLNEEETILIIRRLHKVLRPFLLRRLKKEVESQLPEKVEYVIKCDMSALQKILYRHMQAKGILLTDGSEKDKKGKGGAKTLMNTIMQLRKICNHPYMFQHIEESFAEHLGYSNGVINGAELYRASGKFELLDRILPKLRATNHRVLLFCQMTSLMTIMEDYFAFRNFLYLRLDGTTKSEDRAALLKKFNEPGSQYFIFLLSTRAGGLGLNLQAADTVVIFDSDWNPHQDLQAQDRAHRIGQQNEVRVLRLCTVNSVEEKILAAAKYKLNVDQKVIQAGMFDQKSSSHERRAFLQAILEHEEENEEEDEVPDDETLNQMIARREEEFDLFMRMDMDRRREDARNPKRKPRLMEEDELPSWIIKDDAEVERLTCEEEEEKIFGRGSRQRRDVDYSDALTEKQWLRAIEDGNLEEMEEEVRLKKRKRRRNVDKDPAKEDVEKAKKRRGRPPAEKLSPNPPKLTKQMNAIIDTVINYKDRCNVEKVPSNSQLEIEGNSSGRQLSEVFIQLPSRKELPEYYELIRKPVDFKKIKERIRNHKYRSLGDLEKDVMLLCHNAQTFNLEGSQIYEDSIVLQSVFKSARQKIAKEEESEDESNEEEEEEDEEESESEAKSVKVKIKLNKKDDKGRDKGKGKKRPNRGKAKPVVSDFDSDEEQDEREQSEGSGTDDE

COc1ccn2c(C(C)=O)cc(C(=O)Nc3cc(C(C)O)cc(-c4cnn(C5CC5)c4)c3F)c2c1 (configuration not stated)
ΔTm [1]: 0 °C | ΔTm [2]: 0 °C | inhibition [3]: Active | Activity [4]: Dde | inhibition in vivo at 40 mg/kg [5]: 78% | CLint scaled at 1 µM [6]: 81.9 mL/min/kg | Activity [7]: Non-Toxic | ΔTm [8]: -0.5 °C | AUC(0-inf) [9]: 4820 ng·h/mL | Kd [10]: 0.058 µM | ΔTm [11]: 5 °C | ΔTm [12]: -0.8 °C | inhibition in vivo at 40 mg/kg [13]: 88% | Activity [14]: Dde | Activity [15]: Active | Activity [16]: Non-Toxic | AUC [17]: 3715.71 ng·h/mL | ΔTm [18]: -0.5 °C | ΔTm [19]: 12 °C | ΔTm [20]: 1 °C | remaining at 0.75 h, 1 µM [21]: 50.7% | inhibition [22]: Active | ΔTm [23]: -1.3 °C | Papp B→A at 2 h, 10 µM [24]: 11.8 ×10⁻⁶ cm/s | half-life at 1 µM [25]: 45.9 min | IC50 [26]: 6.43 µM | Activity [27]: Active | Cmax [28]: 8110 ng/mL | Activity [29]: Dde | Activity [30]: Active | Activity [31]: Active | efflux ratio at 2 h, 10 µM [32]: 1.77

Source: ChEMBL document CHEMBL5154675, “Design, Synthesis, and Biological Evaluation of 1-(Indolizin-3-yl)ethan-1-ones as CBP Bromodomain Inhibitors for the Treatment of Prostate Cancer” (J Med Chem, 2022)
